# Test system: MCT-induced pulmonary arterial hypertension in rat
# Assay: Rat monocrotaline model of pulmonary arterial hypertension
# Format: in vivo
# Conditions: male Wistar rats, MCT 60 mg/kg s.c.; test compound 30 mg/kg oral gavage twice a day for 21 days; heart weights Day 22
# Method: Animals: Male Wistar rats (100-150 g at start of study) (Charles River Laboratories, Wilmington, Mass.) were housed two per cage and maintained in a humidity—(40-60%) and temperature—(68-72° F.) controlled facility on a 12 hr:12 hr light/dark cycle (lights on at 6:30 am) with free access to food (Harlan Teklad, Orange Calif., Rodent Diet 8604) and water. Rats were allowed one week of habituation to the animal facility before testing.
# Rat monocrotaline model: The rat monocrotaline (MCT) model is a standard and well-accepted model of pulmonary arterial hypertension. MCT induces acute pulmonary endothelial damage associated with pulmonary vascular inflammation. […]
# Rats were randomly given a single subcutaneous injection of either 60 mg/kg MCT (Sigma, St. Louis, Mo.) or 0.9% saline (sham) and assigned to receive oral administration of 20% hydroxypropyl beta-cyclodextrin (vehicle) or test compound (30 mg/kg; FIGS. 1 and 2). […] Heart chamber weights were measured on Day 22. […] The ratio of right ventricular (RV) weight to left ventricle plus septum (LV+S) weight (this ratio is indicated as “RV/(LV+S)” in FIGS. 1 and 2) was calculated as an index of the hypertrophic response to the induced pulmonary arterial hypertension and, as such, as an index of a test compound's therapeutic efficacy for pulmonary arterial hypertension.
smiles,measurement,value
"COc1cccc(-c2c(-c3ccccc3)nn(C[C@H]3CC[C@@H](COCC(=O)O)CC3)c2C)c1 [Compound 14, 2-(((1s,4s)-4-((4-(3-Methoxyphenyl)-5-methyl-3-phenyl-1H-pyrazol-1-yl)methyl)cyclohexyl)methoxy)acetic Acid]","hypertrophic response to the induced pulmonary arterial hypertension, RV/(LV+S)",inhibited the hypertrophic response
"COc1cccc(-c2c(-c3ccccc3)nn(C[C@H]3CC[C@@H](COCC(=O)O)CC3)c2SC)c1 [Compound 31, 2-(((1s,4s)-4-((4-(3-Methoxyphenyl)-5-(methylthio)-3-phenyl-1H-pyrazol-1-yl)methyl)cyclohexyl)methoxy)acetic Acid]","hypertrophic response to the induced pulmonary arterial hypertension, RV/(LV+S)",inhibited the hypertrophic response

# From US11098034B2, “Pyrazolyl substituted carbonic acid derivatives as modulators of the prostacyclin (PGI2) receptor useful for the treatment of disorders related thereto” (Arena Pharmaceuticals, Inc., priority 2008, dated 2021)
